The results in this text go back to patent US10662174B2, “BTK inhibitor” (Hubei Bio-Pharmaceutical Industrial Technological Institute …, priority 2015, dated 2020).

A value given as a limit tells only on which side of the number the result lay.

For one assay, the target named is T1, BTK kinase (Homo sapiens, UniProt Q06187).
T1 construct: purchased Invitrogen PR5442A
T1 sequence (Q06187 whole entry): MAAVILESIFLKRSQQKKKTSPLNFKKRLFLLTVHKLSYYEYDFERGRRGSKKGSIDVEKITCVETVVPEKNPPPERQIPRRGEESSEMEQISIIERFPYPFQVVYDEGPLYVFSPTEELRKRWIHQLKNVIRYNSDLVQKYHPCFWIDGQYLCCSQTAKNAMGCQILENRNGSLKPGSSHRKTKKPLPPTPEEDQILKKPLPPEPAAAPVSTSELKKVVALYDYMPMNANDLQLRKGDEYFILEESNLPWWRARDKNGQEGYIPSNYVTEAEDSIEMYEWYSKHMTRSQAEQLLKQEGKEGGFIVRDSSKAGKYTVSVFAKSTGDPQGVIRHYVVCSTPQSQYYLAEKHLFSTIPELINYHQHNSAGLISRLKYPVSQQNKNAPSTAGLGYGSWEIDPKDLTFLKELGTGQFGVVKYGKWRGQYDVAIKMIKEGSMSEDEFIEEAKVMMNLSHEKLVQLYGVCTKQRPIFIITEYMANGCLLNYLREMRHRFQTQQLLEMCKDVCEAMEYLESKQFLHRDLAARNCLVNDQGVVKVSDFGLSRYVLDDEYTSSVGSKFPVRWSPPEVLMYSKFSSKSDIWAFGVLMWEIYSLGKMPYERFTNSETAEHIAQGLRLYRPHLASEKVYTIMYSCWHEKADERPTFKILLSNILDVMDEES
Nature of the assay: Assay of inhibition activity of BTK in vitro (HTRF kit, read on Envision). Format: biochemical.
Conditions: not given
Here is the method:
Assay of Inhibition Activity of BTK In Vitro
The inhibition of compounds on BTK kinase was evaluated by […] detected by Envision, using the IC50 value of the compounds as index.
BTK kinase: Invitrogen-PR5442A
HTRF Assay Kit: Cisbio-62TKOPEJ
Plate for compound preparation: Greiner-781280
Cisbio HTRF Kit: Cisbio-62TKOPEJ
Centrifuge: Eppendorf-5810R
Bravo: Agilent Technologies-Bravo
Gradient Dilution of Compounds: […]
The test compound was dissolved with DMSO to be of 1 mM as a stock solution. Such a stock solution was diluted with DMSO by 10-fold, thereby obtaining an initial solution in a concentration of […] which was added into wells at the second column in a plate. 20 μL DMSO was added to other wells using Bravo. Then, 10 μL of the initial solution was transferred from wells at the second column to wells at the third column, followed by mixing obtained solution in the wells at the third column, thereby obtain a first diluted solution in a concentration of 1/3 μM. Subsequently, 10 μL of the first diluted solution was further transferred from wells at the third column to wells at the fourth column, followed by mixing obtained solution in the wells at the fourth column, thereby obtain a second diluted solution in a concentration of 1/9 μM. Such a three-fold serial dilution was performed 10 times, with 11 solutions in series diluted concentrations and a final diluted solution in a concentration of 0.017 nM obtained.
All diluted solutions were further diluted by 25-fold with ultrapure water, thus obtain test solutions, which were equilibrated at r.t. for 30 min before use.
To 2.5 μL of test solution, which was pipetted into each well of Assay plate using Bravo, 5 μL kinase mixture was added using the multi-channel pipettor. The mixture was centrifuged at 1000 rpm for 20 s, followed by incubation at 23° C. for 30 min. The reaction was initiated by 2.5 μL ATP mixture which was pipetted into the wells by Multidrop.
The reaction mixture of BTK kinase (10 μL) included 1.0 nM BTK, 1 μM biotin-TK1 peptide and 20 μM ATP. The reaction buffer included 50 mM Hepes (pH7.5), 10 mM MgCl2 and 0.01 mM […]. The kinase mixture was reacted in incubator at 23° C. for 90 mim.
The reaction was stopped by adding 10 μL Detection Reagent to each well of Assay plate, and the plate was left in incubator at 23° C. for 1 h before read on Envision.
Data analysis: The IC50 values of compounds were calculated using Excel fit.
`CN1CCN(c2ccc(Nc3cc(-c4ccc5c(c4)c(C(=O)c4ccc(C6CC6)cc4F)cn5C)cn(C)c3=O)nc2)CC1` [Example 5] came in with a half-maximal inhibitory concentration (IC50) of 1000 to 10000 nM.

Take `CN1CCN(C)[C@H](c2ccc(Nc3nc(-c4ccc5c(c4)c(C(=O)c4ccc(C6CC6)cc4F)cn5C)cn(C)c3=O)cc2)C1=O` [Example 9]: the IC50 was in the range of 1000 to 10000 nM. The compound `CN1CCNC(=O)C1c1ccc(Nc2ccc(-c3ccc4c(c3)c(C(=O)c3ccc(C5CC5)cc3F)cn4C)n(C)c2=O)cc1` (stereo not shown) [Example 16] came in with an IC50 of 100 to 1000 nM.

Staying with this assay, now noted: 1.0 nM BTK, 1 μM biotin-TK1 peptide, 20 μM ATP, 23° C., tested by Envision; read-out: BTK IC50.
With `C=CC(=O)N1CCC[C@@H](Nc2ncnc(N)c2C(=O)c2ccc(Oc3ccccc3)cc2)C1` [Example 1], the IC50 lay in the range of 100 to 1000 nM. The same measure, in the same setting: the same measure for `C=CC(=O)N1CCC[C@@H](Nc2ncnc3[nH]c(=O)c(-c4ccccc4)cc23)C1` [Example 2]: 1000 to 10000 nM; for `C=CC(=O)N1CCC[C@@H](Nc2ncnc(N)c2C(=O)c2ccc(N(C)c3ccccc3)cc2)C1` [Example 3]: 1000 to 10000 nM; for `C=CC(=O)N1CCC[C@@H](Nc2ncnc(N)c2C(=O)c2ccc(Nc3ccccc3)cc2)C1` [Example 4]: 1000 to 10000 nM. Take `Cc1ccn2c(=O)c(-c3cccc(-c4cc(Nc5ccc(N6CCN(C)CC6)cn5)c(=O)n(C)c4)c3C)cnc2c1` [Example 6]: the IC50 fell in the range of 1000 to 10000 nM. Still for that read-out and setting: the same measure for `Cc1c(-c2cc(Nc3ccc(N4CCN(C)CC4)cn3)c(=O)n(C)c2)cccc1-c1ccc(-c2ccccc2)n(C)c1=O` [Example 7]: 1000 to 10000 nM; for `C=CC(=O)N1CCC[C@@H](Nc2ncnc3[nH]cc(-c4ccccc4)c(=O)c23)C1` [Example 8]: 1000 to 10000 nM; for `Cc1ccn2c(=O)c(-c3cccc(-c4cc(Nc5ccc(N6CCN(C)CC6)cn5)c(=O)n(C)c4)c3C)ccc2c1` [Example 10]: 1000 to 10000 nM.

As for `Cc1ccn2c(=O)c(-c3cccc(-c4cn(C)c(=O)c(Nc5ccc([C@@H]6C(=O)NCCN6C)cc5)n4)c3C)ccc2c1` [Example 11], the IC50 was 1000 to 10000 nM. Still for that read-out and setting: the same measure for `Cc1c(-c2cc(Nc3ccc(C4C(=O)NCCN4C)cc3)c(=O)n(C)c2)cccc1-c1ccc(-c2ccccc2)n(C)c1=O` (stereo not shown) [Example 12]: 1000 to 10000 nM; for `C=CC(=O)Nc1cccc2c1cnn2-c1nc(Nc2ccc(OCCOC)cc2)ncc1F` [Example 13]: 1000 to 10000 nM; for `C=CC(=O)Nc1ccc2ncn(-c3nc(Nc4ccc(OCCOC)cc4)ncc3F)c2c1` [Example 14]: 1000 to 10000 nM. Same read-out and setting: the result for `C=CC(=O)Nc1ccc2cnn(-c3ncnc(Nc4ccc(OCCOC)cc4)n3)c2c1` [Example 15] reads 1000 to 10000 nM; that for `C=CC(=O)N1CCC[C@@H](Nc2cc3ncc(-c4ccc(Oc5ccccc5)cc4)c(=O)n3cn2)C1` [Example 17], 1000 to 10000 nM; that for `C=CC(=O)N1CCC[C@@H](Nc2ncnc(N)c2-n2ncc3cc(Oc4ccccc4)ccc32)C1` [Example 18], 1000 to 10000 nM.

As to `C=CC(=O)N1CCC[C@@H](Nc2ncnc(N)c2-n2ncc3cc(OCCOC)ccc32)C1` [Example 19], the IC50 lay in the range of 1000 to 10000 nM. Same read-out and setting: the same measure for `C=CC(=O)N1CCCC(n2nc(-c3ccc(Oc4ccccc4)cc3)c3c(N)n[nH]c(=O)c32)C1` (stereo not shown) [Example 20]: less than 100 nM; for `C=CC(=O)N1CCCC(c2nc3cnc(Nc4ccc(OCCOC)cc4)nc3[nH]2)C1` (stereo not shown) [Example 21]: 1000 to 10000 nM. On the same count and under the same terms, the result for `C=CC(=O)Nc1ccc(-c2nc3cnc(Nc4ccc(OCCOC)cc4)nc3[nH]2)cc1` [Example 22] reads less than 100 nM.

`COCCOc1ccc(Nc2ncc3[nH]c(CCN)nc3n2)cc1` [Example 23]: the IC50 is 1000 to 10000 nM. The same measure, in the same setting: the result for `C=CC(=O)Nc1cccc(-n2cnc3cnc(Nc4ccc(OCCOC)cc4)nc32)c1` [Example 24] reads 1000 to 10000 nM.

Regarding `C=CC(=O)N1CCC[C@@H](Nc2ncnc(N)c2C(=O)c2ccc(Oc3ccccc3)cc2C)C1` [Example 25], the IC50 lay in the range of 100 to 1000 nM. The same measure, in the same setting: the same measure for `C=CC(=O)N1CCC[C@@H](Nc2ncnc(N)c2C(=O)c2ccc(Oc3ccccc3)cc2F)C1` [Example 26]: 1000 to 10000 nM; for `C=CC(=O)Nc1ccc2ncn(-c3ncnc(Nc4ccc(OCCOC)cc4)n3)c2c1` [Example 27]: 1000 to 10000 nM; for `C=CC(=O)N1CCC[C@@H](n2nc(-c3ccc(Oc4ccccc4)cc3)c3c(N)n[nH]c(=O)c32)C1` [Example 28]: less than 100 nM. In the case of `C=CC(=O)Nc1cccc(-n2cnc3cnc(Nc4ccc(Oc5ccccc5)cc4)nc32)c1` [Example 29], the IC50 is 1000 to 10000 nM.

Take `C=CC(=O)N1CCCC(n2c(=O)c(-c3ccc(Oc4ccccc4)cc3)cc3c(N)ncnc32)C1` (stereo not shown) [Example 30]: the IC50 lay within 100 to 1000 nM. Same read-out and setting: the same measure for `C=CC(=O)N(C)CCn1nc(-c2ccc(Oc3ccccc3)cc2)c2c(N)n[nH]c(=O)c21` [Example 31]: less than 100 nM; for `C=CC(=O)N1CCC[C@@H](n2nc(-c3ccc(Oc4ccccn4)cc3)c3c(N)n[nH]c(=O)c32)C1` [Example 32]: less than 100 nM; for `C=CC(=O)N1CCC[C@@H](n2nc(-c3ccc(OC4CC4)cc3)c3c(N)n[nH]c(=O)c32)C1` [Example 33]: less than 100 nM. On the same count and under the same terms, the same measure for `CN(C)C/C=C/C(=O)N(C)CCn1nc(-c2ccc(Oc3ccccc3)cc2)c2c(N)n[nH]c(=O)c21` [Example 34]: less than 100 nM. On the same count and under the same terms, the result for `C=CC(=O)N1CCC[C@@H](n2nc(-c3ccc(OC4CC5CC5C4)cc3)c3c(N)n[nH]c(=O)c32)C1` (stereo partly shown) [Example 35] reads less than 100 nM. In the case of `Nc1n[nH]c(=O)c2c1c(-c1ccc(Oc3ccccc3)cc1)nn2[C@@H]1CCCN(C(=O)/C=C/CN2CCOCC2)C1` [Example 36], the IC50 is less than 100 nM. For `C=CC(=O)N1CCC[C@H]1Cn1nc(-c2ccc(Oc3ccccc3)cc2)c2c(N)n[nH]c(=O)c21` [Example 37], the IC50 is less than 100 nM. Same read-out and setting: the same measure for `C=CC(=O)N1CCC[C@@H]1Cn1nc(-c2ccc(Oc3ccccc3)cc2)c2c(N)n[nH]c(=O)c21` [Example 38]: less than 100 nM; for `C=CS(=O)(=O)N[C@H]1CC[C@@H](n2nc(-c3ccc(Oc4ccccn4)cc3)c3c(N)n[nH]c(=O)c32)CC1` [Example 39]: less than 100 nM; for `C=CC(=O)N[C@H]1CC[C@@H](n2nc(-c3ccc(OC4CC5CC5C4)cc3)c3c(N)n[nH]c(=O)c32)CC1` (stereo partly shown) [Example 41]: less than 100 nM. The same measure, in the same setting: the result for `C=CC(=O)N1CCCC(Nc2ncnc(N)c2C(=O)c2ccc(Oc3ccccc3)cc2Cl)C1` (stereo not shown) [Example 42] reads 100 to 1000 nM; that for `C=CC(=O)N1CCC(n2nc(-c3ccc(Oc4ccccc4)cc3)c3c(N)n[nH]c(=O)c32)C1` (stereo not shown) [Example 43], less than 100 nM; that for `C=CC(=O)N1CCC[C@@H](n2nc(-c3ccc(Oc4ccc(F)cn4)cc3)c3c(N)n[nH]c(=O)c32)C1` [Example 44], less than 100 nM. Still for that read-out and setting: the same measure for `CC#CC(=O)N1CCC[C@@H](n2nc(-c3ccc(Oc4ccccc4)cc3)c3c(N)n[nH]c(=O)c32)C1` [Example 45]: less than 100 nM; for `C=CC(=O)N1CC2(CC(n3nc(-c4ccc(Oc5ccccc5)cc4)c4c(N)n[nH]c(=O)c43)C2)C1` [Example 46]: less than 100 nM; for `C=CC(=O)N1CCC[C@@H](n2nc(-c3ccc4c(cnn4-c4ccccc4)c3)c3c(N)n[nH]c(=O)c32)C1` [Example 47]: 1000 to 10000 nM.

For the compound `C=CC(=O)N1CCC[C@@H](n2nc(-c3ccc(-n4cc5ccccc5n4)cc3)c3c(N)n[nH]c(=O)c32)C1` [Example 48], the IC50 was less than 100 nM.

As to `C=CC(=O)N1CCC[C@@H](n2nc(-c3ccc(C4OCCO4)cc3)c3c(N)n[nH]c(=O)c32)C1` [Example 49], the IC50 was less than 100 nM. Same read-out and setting: the same measure for `C=CC(=O)N1CCCC(n2nc(-c3ccc(Oc4ccccc4)cc3)c3c(N)nn(CCO)c(=O)c32)C1` (stereo not shown) [Example 50]: 100 to 1000 nM; for `C=CC(=O)N1CCCCC(n2nc(-c3ccc(Oc4ccccc4)cc3)c3c(N)n[nH]c(=O)c32)C1` (stereo not shown) [Example 51]: less than 100 nM; for `C=CC(=O)N1CCCC(n2nc(-c3ccc(Oc4ccccc4)cc3)c3c(N)nn(C4CC4)c(=O)c32)C1` (stereo not shown) [Example 52]: less than 100 nM. On the same count and under the same terms, the result for `C=CC(=O)N1CCC[C@@H](n2cc(-c3ccc(Oc4ccccc4)cc3)c3c(N)n[nH]c(=O)c32)C1` [Example 53] reads less than 100 nM; that for `C=CC(=O)N1CCCC(n2nc(-c3ccc(Oc4ccccc4C)cc3)c3c(N)n[nH]c(=O)c32)C1` (stereo not shown) [Example 54], less than 100 nM. Consider `C=CC(=O)N1CCCC(n2nc(-c3ccc(Oc4ccc(C)cc4)cc3)c3c(N)n[nH]c(=O)c32)C1` (stereo not shown) [Example 55], for which the IC50 was less than 100 nM. Still for that read-out and setting: the same measure for `C=CC(=O)N1CCCC(n2nc(-c3ccc(Oc4cccc(F)c4)cc3)c3c(N)n[nH]c(=O)c32)C1` (stereo not shown) [Example 56]: less than 100 nM.
